Reference: the Kinase Knowledgebase extract (Sharma et al. 2016)

What was measured:
[1] = tested on: EGFR (Human), P00533 [Assessment of Proliferation in EGFR DelE746_A750 Mutant Expressing HCC827 Cells]
[2] = tested on: EGFR (Human), P00533 [T790M/L858R]; settings: nci-h1975
Chain of EGFR (Human), P00533 [T790M/L858R] (P00533 whole entry T790M/L858R, looked up): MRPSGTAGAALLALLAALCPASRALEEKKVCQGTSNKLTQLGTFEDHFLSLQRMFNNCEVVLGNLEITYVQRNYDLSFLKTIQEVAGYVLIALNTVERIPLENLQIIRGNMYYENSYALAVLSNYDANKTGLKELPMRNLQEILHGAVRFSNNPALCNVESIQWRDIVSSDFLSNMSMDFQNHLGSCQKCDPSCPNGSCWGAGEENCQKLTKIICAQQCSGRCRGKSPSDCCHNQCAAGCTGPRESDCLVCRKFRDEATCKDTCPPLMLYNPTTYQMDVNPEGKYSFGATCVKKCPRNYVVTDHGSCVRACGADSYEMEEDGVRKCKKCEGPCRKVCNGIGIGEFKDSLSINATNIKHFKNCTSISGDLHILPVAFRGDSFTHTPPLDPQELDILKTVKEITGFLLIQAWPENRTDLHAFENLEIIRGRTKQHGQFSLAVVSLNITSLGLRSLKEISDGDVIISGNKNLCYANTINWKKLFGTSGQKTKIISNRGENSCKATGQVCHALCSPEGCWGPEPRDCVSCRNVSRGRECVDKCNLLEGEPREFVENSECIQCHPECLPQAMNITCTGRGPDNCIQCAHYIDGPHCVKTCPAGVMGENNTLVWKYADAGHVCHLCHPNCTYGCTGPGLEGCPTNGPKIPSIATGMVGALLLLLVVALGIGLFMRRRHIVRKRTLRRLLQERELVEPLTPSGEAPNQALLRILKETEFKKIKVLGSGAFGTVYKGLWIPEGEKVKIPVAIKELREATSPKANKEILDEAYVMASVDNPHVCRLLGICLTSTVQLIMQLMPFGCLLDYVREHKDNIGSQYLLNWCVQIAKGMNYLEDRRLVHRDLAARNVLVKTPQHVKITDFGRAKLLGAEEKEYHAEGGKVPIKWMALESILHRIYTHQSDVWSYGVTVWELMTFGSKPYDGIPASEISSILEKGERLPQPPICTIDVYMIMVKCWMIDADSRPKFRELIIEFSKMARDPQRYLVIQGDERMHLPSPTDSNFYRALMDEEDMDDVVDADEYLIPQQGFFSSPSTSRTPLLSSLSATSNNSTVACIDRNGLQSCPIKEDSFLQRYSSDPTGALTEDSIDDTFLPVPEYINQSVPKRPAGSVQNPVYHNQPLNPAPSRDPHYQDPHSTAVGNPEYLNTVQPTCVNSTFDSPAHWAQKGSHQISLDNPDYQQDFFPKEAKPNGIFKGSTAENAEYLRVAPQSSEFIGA

Chain of EGFR (Human), P00533 [Assessment of Proliferation in EGFR DelE746_A750 Mutant Expressing HCC827 Cells] (P00533 whole entry, looked up, stated change not applied): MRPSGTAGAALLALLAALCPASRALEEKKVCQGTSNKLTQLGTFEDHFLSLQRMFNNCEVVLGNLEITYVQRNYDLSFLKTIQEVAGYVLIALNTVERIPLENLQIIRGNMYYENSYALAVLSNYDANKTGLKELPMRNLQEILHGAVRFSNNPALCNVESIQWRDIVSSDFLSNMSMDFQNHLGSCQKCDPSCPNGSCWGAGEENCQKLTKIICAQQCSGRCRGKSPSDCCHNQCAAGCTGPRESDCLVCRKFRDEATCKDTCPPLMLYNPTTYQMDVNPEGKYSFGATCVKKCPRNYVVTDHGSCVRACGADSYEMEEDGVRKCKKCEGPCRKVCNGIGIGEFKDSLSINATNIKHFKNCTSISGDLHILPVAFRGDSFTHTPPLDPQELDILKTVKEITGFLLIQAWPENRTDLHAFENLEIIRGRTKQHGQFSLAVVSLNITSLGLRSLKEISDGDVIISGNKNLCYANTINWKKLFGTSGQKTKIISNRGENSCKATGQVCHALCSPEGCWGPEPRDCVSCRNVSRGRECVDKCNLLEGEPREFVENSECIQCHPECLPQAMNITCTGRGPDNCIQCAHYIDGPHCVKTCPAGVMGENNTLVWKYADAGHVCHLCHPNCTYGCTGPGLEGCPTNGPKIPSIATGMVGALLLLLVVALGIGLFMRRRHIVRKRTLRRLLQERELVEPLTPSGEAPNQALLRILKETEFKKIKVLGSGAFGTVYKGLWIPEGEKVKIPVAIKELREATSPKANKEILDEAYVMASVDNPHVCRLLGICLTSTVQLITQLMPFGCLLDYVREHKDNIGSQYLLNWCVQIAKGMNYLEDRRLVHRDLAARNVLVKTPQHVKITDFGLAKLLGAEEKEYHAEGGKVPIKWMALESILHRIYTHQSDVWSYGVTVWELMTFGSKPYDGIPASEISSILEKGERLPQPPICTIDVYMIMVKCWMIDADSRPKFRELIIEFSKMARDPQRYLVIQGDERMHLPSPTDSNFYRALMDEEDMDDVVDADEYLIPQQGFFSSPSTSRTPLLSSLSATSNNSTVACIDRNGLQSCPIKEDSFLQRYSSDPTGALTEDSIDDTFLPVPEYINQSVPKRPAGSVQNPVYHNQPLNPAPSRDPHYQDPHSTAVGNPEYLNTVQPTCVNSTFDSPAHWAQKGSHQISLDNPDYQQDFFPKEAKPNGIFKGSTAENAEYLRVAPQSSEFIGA

Row | SMILES | GI50 [1] | GI50 [2]
1 | C=CC(=O)Nc1cccc(Oc2nc(Nc3ccc(CCN4CCN(CC)CC4)cc3)nc3ccsc23)c1 | 0.05 to 0.1 µM | ≤ 0.05 µM
2 | C=CC(=O)Nc1cccc(Oc2nc(Nc3ccc(C4CCN(C)CC4)c(Cl)c3)nc3ccsc23)c1 | 0.05 to 0.1 µM | 0.05 to 0.1 µM
3 | C=CC(=O)Nc1cccc(Oc2nc(Nc3ccc(CN(CC)CC)cc3)nc3ccsc23)c1 | ≤ 0.05 µM | ≤ 0.05 µM
4 | C=CC(=O)Nc1ccc(F)c(Nc2nc(Nc3ccc(N4CCN(C)CC4)c(F)c3)nc3ccsc23)c1 | ≤ 0.05 µM | ≤ 0.05 µM
5 | C=CC(=O)Nc1cccc(Oc2nc(Nc3ccc(NC(=O)N4CCN(C)CC4)c(F)c3)nc3ccsc23)c1 | ≤ 0.05 µM | 0.05 to 0.1 µM
6 | C=CC(=O)Nc1cccc(Oc2nc(Nc3ccc(N4CCC(N5CCN(CC)CC5)CC4)cc3)nc3ccsc23)c1 | ≤ 0.05 µM | 0.1 to 1 µM
7 | C=CC(=O)Nc1cccc(Oc2nc(Nc3ccc(OCCN4CCN(C)CC4)c(F)c3)nc3ccsc23)c1 | ≤ 0.05 µM | ≤ 0.05 µM
8 | C=CC(=O)Nc1cccc(Oc2nc(Nc3ccc(N4CC[S+]([O-])CC4)cc3)nc3ccsc23)c1 | ≤ 0.05 µM | ≤ 0.05 µM
9 | C=CC(=O)Nc1cccc(Oc2nc(Nc3ccc(CCN(C)C)cc3)nc3ccsc23)c1 | ≤ 0.05 µM | ≤ 0.05 µM
10 | C=CC(=O)Nc1cccc(Oc2nc(Nc3ccc(NCCN(C)C)c(F)c3)nc3ccsc23)c1 | ≤ 0.05 µM | ≤ 0.05 µM
11 | C=CC(=O)Nc1cccc(Oc2nc(Nc3ccc(N4CCN(CC)CC4)cn3)nc3ccsc23)c1 | ≤ 0.05 µM | ≤ 0.05 µM
12 | C=CC(=O)Nc1cccc(Oc2nc(Nc3ccc(S(=O)(=O)NC4CC4)cc3)nc3ccsc23)c1 | 0.05 to 0.1 µM | ≤ 0.05 µM
13 | C=CC(=O)Nc1cccc(Oc2nc(Nc3ccc(NC4CCN(C)CC4)cc3)nc3ccsc23)c1 | ≤ 0.05 µM | 0.1 to 1 µM
14 | C=CC(=O)Nc1cccc(Oc2nc(Nc3ccc(CN4CCN(CC)CC4)cc3)nc3ccsc23)c1 | ≤ 0.05 µM | ≤ 0.05 µM
15 | C=CC(=O)Nc1cccc(Oc2nc(Nc3ccc(N4CCC(N5CCOCC5)CC4)cc3)nc3ccsc23)c1 | ≤ 0.05 µM | ≤ 0.05 µM
16 | C=CC(=O)Nc1cccc(Oc2nc(Nc3ccc4c(c3)NCCCO4)nc3ccsc23)c1 | ≤ 0.05 µM | ≤ 0.05 µM
17 | C=CC(=O)Nc1cccc(Oc2nc(Nc3ccc(S(=O)(=O)N4CCN(CC)CC4)cc3)nc3ccsc23)c1 | ≤ 0.05 µM | 0.05 to 0.1 µM
18 | C=CC(=O)Nc1cccc(Oc2nc(Nc3ccc(OC4CCN(C)CC4)c(F)c3)nc3ccsc23)c1 | ≤ 0.05 µM | ≤ 0.05 µM
19 | C=CC(=O)Nc1cccc(Oc2nc(Nc3ccc(C(=O)NCCN4CCCC4)cc3)nc3ccsc23)c1 | ≤ 0.05 µM | ≤ 0.05 µM
20 | C=CC(=O)Nc1cccc(Oc2nc(Nc3ccc(CC(=O)NC4CCN(C)CC4)cc3)nc3ccsc23)c1 | 0.1 to 1 µM | ≤ 0.05 µM
21 | C=CC(=O)Nc1cccc(Oc2nc(Nc3ccc(C4CCCN(C)C4)cc3)nc3ccsc23)c1 (stereo not drawn) | ≤ 0.05 µM | ≤ 0.05 µM
22 | C=CC(=O)Nc1cccc(Oc2nc(Nc3ccc(CN4CCCC4)cc3)nc3ccsc23)c1 | ≤ 0.05 µM | ≤ 0.05 µM
23 | C=CC(=O)Nc1cccc(Oc2nc(Nc3ccc(N4CCNCC4)cc3)nc3ccsc23)c1 | ≤ 0.05 µM | 0.1 to 1 µM
24 | C=CC(=O)Nc1cccc(Oc2nc(Nc3ccc(OCCN(CC)CC)c(F)c3)nc3ccsc23)c1 | ≤ 0.05 µM | ≤ 0.05 µM
25 | C=CC(=O)Nc1cccc(Oc2nc(Nc3ccc(N4CCN(CC(F)(F)F)CC4)cc3)nc3ccsc23)c1 | 0.05 to 0.1 µM | ≤ 0.05 µM
26 | C=CC(=O)Nc1cccc(Oc2nc(Nc3ccc(N4CCN(C)CC4)cc3)nc3ccsc23)c1 | ≤ 0.05 µM | ≤ 0.05 µM
27 | C=CC(=O)Nc1cccc(Oc2nc(Nc3ccc(C(=O)NCCN4CCCC4)cc3OC)nc3ccsc23)c1 | ≤ 0.05 µM | 0.05 to 0.1 µM
28 | C=CC(=O)Nc1cccc(Sc2nc(Nc3ccc(C4CCN(C)CC4)c(F)c3)nc3ccsc23)c1 | ≤ 0.05 µM | ≤ 0.05 µM
29 | C=CC(=O)Nc1cccc(Oc2nc(Nc3ccc(N4CCC(C(=O)N(C)C)CC4)cc3)nc3ccsc23)c1 | ≤ 0.05 µM | ≤ 0.05 µM
